What was measured:
Experiment in all cases: SRB assay, IMT combined with inhibitor
Format in all cases: cell-based
HT29 = HT29 (colon); concentration series of the labelled inhibitor + fixed concentration of IMT (3S)-1-[(2R)-2-[4-(2-chloro-4-fluoro-phenyl)-2-oxo-chromen-7-yl]oxypropanoyl]piperidine-3-carboxylic acid (Table 3: 40 nM, 120 h); negative=synergistic, positive=antagonistic
Description: (§1) Solforhodamine B assay is carried out as described in Voigt W. (2005) Sulforhodamine B Assay and Chemosensitivity. (Methods in Molecular Medicine™, vol 110. Humana Press. https://doi.org/10.1385/1-59259-869-2:039).
(§2) The determination of changes in cellular biomass was based on the Solforhodamine B assay format, carried out as described in Voigt W. (2005) Sulforhodamine B Assay and Chemosensitivity. (Methods in Molecular Medicine™, vol 110. Humana Press. https://doi.org/10.1385/1-59259-869-2:039).
(§3) All in vitro cell culture experiments were carried out under near physiological glucose concentrations (5 mM) in at least two independent replicates.
(§4) First, 30 different cell lines from 14 different tissue types were tested in the SRB assay format. The cells were examined individually for changes in growth over a period of 120 hours with dilution series of both inhibitors. Untreated cells were used as a negative control group. Subsequently, a dilution series of the respective MAPK signalling pathway SOCs was treated in combination with a fixed concentration of 40 nM (3S)-1-[(2R)-2-[4-(2-chloro-4-fluoro-phenyl)-2-oxo-chromen-7-yl]oxypropanoyl]piperidine-3-carboxylic acid.

HCT15 = HCT15 (colon); concentration series of the labelled inhibitor + fixed concentration of IMT (3S)-1-[(2R)-2-[4-(2-chloro-4-fluoro-phenyl)-2-oxo-chromen-7-yl]oxypropanoyl]piperidine-3-carboxylic acid (Table 3: 40 nM, 120 h); negative=synergistic, positive=antagonistic
Description: as §1, §2, §3, §4

JAR = JAR (placenta); concentration series of the labelled inhibitor + fixed concentration of IMT (3S)-1-[(2R)-2-[4-(2-chloro-4-fluoro-phenyl)-2-oxo-chromen-7-yl]oxypropanoyl]piperidine-3-carboxylic acid (Table 3: 40 nM, 120 h); negative=synergistic, positive=antagonistic
Description: as §1, §2, §3, §4

MIAPACA2 = MIAPACA2 (pancreas); concentration series of the labelled inhibitor + fixed concentration of IMT (3S)-1-[(2R)-2-[4-(2-chloro-4-fluoro-phenyl)-2-oxo-chromen-7-yl]oxypropanoyl]piperidine-3-carboxylic acid (Table 3: 40 nM, 120 h); negative=synergistic, positive=antagonistic
Description: as §1, §2, §3, §4

HCT116 = HCT116 (colon); concentration series of the labelled inhibitor + fixed concentration of IMT (3S)-1-[(2R)-2-[4-(2-chloro-4-fluoro-phenyl)-2-oxo-chromen-7-yl]oxypropanoyl]piperidine-3-carboxylic acid (Table 3: 40 nM, 120 h); negative=synergistic, positive=antagonistic
Description: as §1, §2, §3, §4

LOVO = LOVO (colon); concentration series of the labelled inhibitor + fixed concentration of IMT (3S)-1-[(2R)-2-[4-(2-chloro-4-fluoro-phenyl)-2-oxo-chromen-7-yl]oxypropanoyl]piperidine-3-carboxylic acid (Table 3: 40 nM, 120 h); negative=synergistic, positive=antagonistic
Description: as §1, §2, §3, §4

A375 = A375 (skin); concentration series of the labelled inhibitor + fixed concentration of IMT (3S)-1-[(2R)-2-[4-(2-chloro-4-fluoro-phenyl)-2-oxo-chromen-7-yl]oxypropanoyl]piperidine-3-carboxylic acid (Table 3: 40 nM, 120 h); negative=synergistic, positive=antagonistic
Description: as §1, §2, §3, §4

SKMEL28 = SKMEL28 (skin); concentration series of the labelled inhibitor + fixed concentration of IMT (3S)-1-[(2R)-2-[4-(2-chloro-4-fluoro-phenyl)-2-oxo-chromen-7-yl]oxypropanoyl]piperidine-3-carboxylic acid (Table 3: 40 nM, 120 h); negative=synergistic, positive=antagonistic
Description: as §1, §2, §3, §4

BXPC3 = BXPC3 (pancreas); concentration series of the labelled inhibitor + fixed concentration of IMT (3S)-1-[(2R)-2-[4-(2-chloro-4-fluoro-phenyl)-2-oxo-chromen-7-yl]oxypropanoyl]piperidine-3-carboxylic acid (Table 3: 40 nM, 120 h); negative=synergistic, positive=antagonistic
Description: as §1, §2, §3, §4

HEPG2 = HEPG2 (liver); concentration series of the labelled inhibitor + fixed concentration of IMT (3S)-1-[(2R)-2-[4-(2-chloro-4-fluoro-phenyl)-2-oxo-chromen-7-yl]oxypropanoyl]piperidine-3-carboxylic acid (Table 3: 40 nM, 120 h); negative=synergistic, positive=antagonistic
Description: as §1, §2, §3, §4

KASUMI-1 = KASUMI-1 (hematological); concentration series of the labelled inhibitor + fixed concentration of IMT (3S)-1-[(2R)-2-[4-(2-chloro-4-fluoro-phenyl)-2-oxo-chromen-7-yl]oxypropanoyl]piperidine-3-carboxylic acid (Table 3: 40 nM, 120 h); negative=synergistic, positive=antagonistic
Description: as §1, §2, §3, §4

PANC1 = PANC1 (pancreas); concentration series of the labelled inhibitor + fixed concentration of IMT (3S)-1-[(2R)-2-[4-(2-chloro-4-fluoro-phenyl)-2-oxo-chromen-7-yl]oxypropanoyl]piperidine-3-carboxylic acid (Table 3: 40 nM, 120 h); negative=synergistic, positive=antagonistic
Description: as §1, §2, §3, §4

MHHES1 = MHHES1 (bone); concentration series of the labelled inhibitor + fixed concentration of IMT (3S)-1-[(2R)-2-[4-(2-chloro-4-fluoro-phenyl)-2-oxo-chromen-7-yl]oxypropanoyl]piperidine-3-carboxylic acid (Table 3: 40 nM, 120 h); negative=synergistic, positive=antagonistic
Description: as §1, §2, §3, §4

IMR90 = IMR90 (lung); concentration series of the labelled inhibitor + fixed concentration of IMT (3S)-1-[(2R)-2-[4-(2-chloro-4-fluoro-phenyl)-2-oxo-chromen-7-yl]oxypropanoyl]piperidine-3-carboxylic acid (Table 3: 40 nM, 120 h); negative=synergistic, positive=antagonistic
Description: as §1, §2, §3, §4

A673 = A673 (muscle); concentration series of the labelled inhibitor + fixed concentration of IMT (3S)-1-[(2R)-2-[4-(2-chloro-4-fluoro-phenyl)-2-oxo-chromen-7-yl]oxypropanoyl]piperidine-3-carboxylic acid (Table 3: 40 nM, 120 h); negative=synergistic, positive=antagonistic
Description: as §1, §2, §3, §4

| Compound | difference between the calculated combinatorial index (BLISS) and the observed combinatorial effect (HT29) | difference between the calculated combinatorial index (BLISS) and the observed combinatorial effect (HCT15) | difference between the calculated combinatorial index (BLISS) and the observed combinatorial effect (JAR) | difference between the calculated combinatorial index (BLISS) and the observed combinatorial effect (MIAPACA2) | difference between the calculated combinatorial index (BLISS) and the observed combinatorial effect (HCT116) | difference between the calculated combinatorial index (BLISS) and the observed combinatorial effect (LOVO) | difference between the calculated combinatorial index (BLISS) and the observed combinatorial effect (A375) | difference between the calculated combinatorial index (BLISS) and the observed combinatorial effect (SKMEL28) | difference between the calculated combinatorial index (BLISS) and the observed combinatorial effect (BXPC3) | difference between the calculated combinatorial index (BLISS) and the observed combinatorial effect (HEPG2) | difference between the calculated combinatorial index (BLISS) and the observed combinatorial effect (KASUMI-1) | difference between the calculated combinatorial index (BLISS) and the observed combinatorial effect (PANC1) | difference between the calculated combinatorial index (BLISS) and the observed combinatorial effect (MHHES1) | difference between the calculated combinatorial index (BLISS) and the observed combinatorial effect (IMR90) | difference between the calculated combinatorial index (BLISS) and the observed combinatorial effect (A673) |
| --- | --- | --- | --- | --- | --- | --- | --- | --- | --- | --- | --- | --- | --- | --- | --- |
| O=C(c1ccc(F)c(F)c1Nc1ccc(I)cc1F)N1CC(O)([C@@H]2CCCCN2)C1 [Cobimetinib] | 0.0382 | 0.0539 | 0.0139 | −0.0673 | −0.0279 | −0.0754 | 0.0443 | −0.0040 | 0.0204 | −0.0133 | −0.0232 | 0.0747 | −0.0055 | −0.0073 | 0.0185 |
| Cc1cc(C(=O)NOCCO)c(Nc2ccc(I)cc2F)n(C)c1=O [AZD8330, 2-((2-Fluoro-4-iodophenyl)amino)-N-(2-hydroxyethoxy)-1,5-dimethyl-6-oxo-1,6-dihydropyridine-3-carboxamide] | 0.0488 | 0.1028 | 0.0124 | 0.1347 | −0.0196 | 0.0047 | 0.0451 | 0.0300 | 0.0756 | 0.0270 | −0.0326 | 0.0157 | 0.0682 | 0.0338 | −0.0047 |
| CC(C)Nc1cc(-c2c[nH]c(C(=O)N[C@H](CO)c3cccc(Cl)c3)c2)c(Cl)cn1 [Ulixertinib] | 0.0702 | −0.0215 | 0.0116 | 0.0431 | −0.0066 | 0.0039 | 0.0427 | 0.0022 | 0.0946 | 0.0953 | 0.0068 | 0.0634 | 0.0992 | 0.0678 | 0.0876 |
| Cn1cnc2c(F)c(Nc3ccc(Br)cc3Cl)c(C(=O)NOCCO)cc21 [Selumetinib] | 0.0236 | 0.0320 | 0.0045 | −0.0734 | −0.0774 | −0.0877 | 0.0423 | 0.0096 | −0.0219 | 0.0032 | −0.0114 | 0.0867 | 0.0218 | −0.0291 | 0.0313 |
